According to PubChem BioAssay (NCI):
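Test compounds were applied to cells in 96-well plates for 48 hours at 5 doses. Abbreviation: GI50, concentration required for 50% inhibition of growth. TGI: concentration producing complete growth inhibition.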

What was measured:
Assay in all cases: NCI tumour cell line growth inhibition, 48 h
[1] = system: 786-0 renal
[2] = system: A498 renal
[3] = system: A549 NSCLC
[4] = system: ACHN renal
[5] = system: BT-549 breast
[6] = system: CAKI-1 renal
[7] = system: CCRF-CEM leukemia
[8] = system: COLO 205 colon
[9] = system: DU-145 prostate
[10] = system: EKVX NSCLC
[11] = system: HCC-2998 colon
[12] = system: HCT-116 colon
[13] = system: HCT-15 colon
[14] = system: HL-60(TB) leukemia
[15] = system: HOP-62 NSCLC
[16] = system: HOP-92 NSCLC
[17] = system: HS 578T breast
[18] = system: HT29 colon
[19] = system: IGROV1 ovarian
[20] = system: K-562 leukemia
[21] = system: KM12 colon
[22] = system: LOX IMVI melanoma
[23] = system: M14 melanoma
[24] = system: MALME-3M melanoma
[25] = system: MCF7 breast
[26] = system: MDA-MB-231 breast
[27] = system: MDA-MB-435
[28] = system: MOLT-4 leukemia
[29] = system: NCI-H226 lung
[30] = system: NCI-H23 lung
[31] = system: NCI-H460 lung
[32] = system: NCI-H522 lung
[33] = system: NCI/ADR-RES ovarian
[34] = system: OVCAR-3 ovarian
[35] = system: OVCAR-4 ovarian
[36] = system: OVCAR-5 ovarian
[37] = system: OVCAR-8 ovarian
[38] = system: PC-3 prostate
[39] = system: RPMI-8226 leukemia
[40] = system: RXF 393 renal
[41] = system: SF-268 CNS
[42] = system: SF-295 CNS
[43] = system: SF-539 CNS
[44] = system: SK-MEL-2 melanoma
[45] = system: SK-MEL-28 melanoma
[46] = system: SK-MEL-5 melanoma
[47] = system: SK-OV-3 ovarian
[48] = system: SN12C renal
[49] = system: SNB-19 CNS
[50] = system: SNB-75 CNS
[51] = system: SR leukemia
[52] = system: SW-620 colon
[53] = system: T-47D breast
[54] = system: TK-10 renal
[55] = system: U251 CNS
[56] = system: UACC-257 melanoma
[57] = system: UACC-62 melanoma
[58] = system: UO-31 renal

O=C1c2ccccc2C(=O)c2c(N=Nc3[nH]c(=S)[nH]c3O)cccc21
GI50 [1]: 1110 nM
TGI [1]: > 100000 nM
GI50 [2]: 104 nM
TGI [2]: 1130 nM
GI50 [3]: 1750 nM
TGI [3]: > 100000 nM
GI50 [4]: 1900 nM
TGI [4]: > 100000 nM
GI50 [5]: 1120 nM
TGI [5]: 43300 nM
GI50 [6]: 548 nM
TGI [6]: > 75000 nM
GI50 [7]: 384 nM
TGI [7]: > 100000 nM
GI50 [8]: 2410 nM
TGI [8]: > 100000 nM
GI50 [9]: 984 nM
TGI [9]: > 42400 nM
GI50 [10]: 4710 nM
TGI [10]: > 100000 nM
GI50 [11]: 3080 nM
TGI [11]: > 100000 nM
GI50 [12]: 462 nM
TGI [12]: > 100000 nM
GI50 [13]: 689 nM
TGI [13]: > 100000 nM
GI50 [14]: 1130 nM
TGI [14]: > 100000 nM
GI50 [15]: 1840 nM
TGI [15]: > 61600 nM
GI50 [16]: 877 nM
TGI [16]: > 57200 nM
GI50 [17]: 462 nM
TGI [17]: 47900 nM
GI50 [18]: 2530 nM
TGI [18]: > 100000 nM
GI50 [19]: 968 nM
TGI [19]: > 100000 nM
GI50 [20]: 434 nM
TGI [20]: > 100000 nM
GI50 [21]: 454 nM
TGI [21]: > 100000 nM
GI50 [22]: 734 nM
TGI [22]: > 100000 nM
GI50 [23]: 579 nM
TGI [23]: > 100000 nM
GI50 [24]: 769 nM
TGI [24]: > 100000 nM
GI50 [25]: 357 nM
TGI [25]: > 100000 nM
GI50 [26]: 1300 nM
TGI [26]: 18300 nM
GI50 [27]: 224 nM
TGI [27]: 630 nM
GI50 [28]: 1100 nM
TGI [28]: > 100000 nM
GI50 [29]: 4330 nM
TGI [29]: > 56900 nM
GI50 [30]: 1670 nM
TGI [30]: 38600 nM
GI50 [31]: 849 nM
TGI [31]: > 100000 nM
GI50 [32]: 425 nM
TGI [32]: > 34500 nM
GI50 [33]: 2450 nM
TGI [33]: > 28200 nM
GI50 [34]: 368 nM
GI50 [35]: 2120 nM
TGI [35]: > 100000 nM
GI50 [36]: 4170 nM
TGI [36]: > 100000 nM
GI50 [37]: 2470 nM
TGI [37]: > 100000 nM
GI50 [38]: 816 nM
TGI [38]: > 100000 nM
GI50 [39]: 1090 nM
TGI [39]: > 100000 nM
GI50 [40]: 508 nM
TGI [40]: 3210 nM
GI50 [41]: 1560 nM
TGI [41]: 98900 nM
GI50 [42]: 983 nM
TGI [42]: 19800 nM
GI50 [43]: 424 nM
TGI [43]: 2740 nM
GI50 [44]: 1700 nM
TGI [44]: > 100000 nM
GI50 [45]: 5200 nM
TGI [45]: > 100000 nM
GI50 [46]: 743 nM
TGI [46]: > 100000 nM
GI50 [47]: 3860 nM
TGI [47]: > 100000 nM
GI50 [48]: 1490 nM
TGI [48]: > 100000 nM
GI50 [49]: 997 nM
TGI [49]: > 74800 nM
GI50 [50]: 346 nM
TGI [50]: 2960 nM
GI50 [51]: 472 nM
TGI [51]: > 100000 nM
GI50 [52]: 496 nM
TGI [52]: > 100000 nM
GI50 [53]: 1640 nM
TGI [53]: > 100000 nM
GI50 [54]: 5230 nM
TGI [54]: > 100000 nM
GI50 [55]: 676 nM
TGI [55]: 56700 nM
GI50 [56]: > 100000 nM
TGI [56]: > 100000 nM
GI50 [57]: 604 nM
TGI [57]: > 100000 nM
GI50 [58]: 792 nM
TGI [58]: > 21400 nM
